The nature of assay [1]: Calcium Scale Inhibition Test. Conditions: 180° F, samples at 2 and 4 hour periods. How it is done:
Calcium Scale Inhibition Test
The procedure utilized to determine the effectiveness of scale inhibitors in regard to calcium scale is as follows:
Several 50 ml. samples of a 0.04 sodium bicarbonate solution are placed in 100 ml. bottles. To these solutions is added the inhibitor in various known concentrations. 50 ml. samples of a 0.02 M CaCl2 solution are then added.
A total hardness determination is then made on the 50-50 mixture utilizing the well known Schwarzenbach titration. The samples are placed in a water bath and heated at 180° F. 10 ml. samples are taken from each bottle at 2 and 4 hour periods. These samples are filtered through millipore filters and the total hardness of the filtrates are determined by titration.

For assay [2] the following is noted: powerful sequesterants; background statement; cited from earlier work.

Molecules are shown by their SMILES. Structures can show the parent of a compound that is named as a salt.

As to `O=P(O)(O)CN(CCCS(=O)(=O)O)C1CCCCC1` [Example 1], in assay [1] (100 ppm), the “% Inhibition (calcium scale inhibition)” value was found to be 86%. Consider `CCCCCCCCN(CCCS(=O)(=O)O)CP(=O)(O)O` [Example 4], for which the “% Inhibition (calcium scale inhibition)” value in assay [1] (100 ppm) came to 24%; in assay [1] (200 ppm), 60%. In the case of `O=P(O)(O)CN(CCCS(=O)(=O)O)CCN(CCCS(=O)(=O)O)CP(=O)(O)O` [Example 11], the “% Inhibition (calcium scale inhibition)” value in assay [1] (50 ppm) came out at 95%; in assay [1] (100 ppm), 100%.

Regarding `O=P(O)(O)CN(CCCS(=O)(=O)O)CCN(CCN(CP(=O)(O)O)CP(=O)(O)O)CP(=O)(O)O` [Example 14], the “% Inhibition (calcium scale inhibition)” value in assay [1] (10 ppm) amounted to 66%; in assay [1] (100 ppm), 100%.

Take `O=P(O)(O)CN(CCCS(=O)(=O)O)CCN(CCN(CCCS(=O)(=O)O)CP(=O)(O)O)CP(=O)(O)O` [Example 15]: the “% Inhibition (calcium scale inhibition)” value in assay [1] (10 ppm) is listed as 42%; in assay [1] (50 ppm), 95%. For `O=C(O)CN(CCN(CC(=O)O)CC(=O)O)CC(=O)O` [ethylenediamine tetracetic acid salts, ethylenediamine tetracetic acid], in assay [2], the threshold activities result is “no threshold activities”.
